# Measured values as given in patent publication US9744164B2, “Neuroprotective polyphenol analogs” (Salk Institute for Biological Studies, priority 2011, dated 2017).
# How the values were obtained:
# [1] = tested on: embolic strokes in rabbits; settings: RSCEM, as published in the manuscript; cited from earlier work
# [2] = tested on: embolic strokes in rabbits; assay: rabbit small clot embolic stroke model (RSCEM); assay type: in vivo
# Text: The ability of polyphenol analogs to treat, prevent and/or mitigate one or more symptoms of stroke can also be evaluated in in vivo assays. Such assays are known in the art and find use. One applicable in vivo screening assay is the rabbit clot embolic stroke model, discussed, e.g., in Lapchak, et al., Stroke (2002) 33(9):2279-84 and Lapchak, Exp Neurol. (2007) 205(2):407-13. The rabbit small clot embolic stroke model (RSCEM) and rabbit large clot embolic stroke model (RLCEM) can be used to determine the potential neuroprotective properties and safety profile of test polyphenol analogs after an embolic stroke. Rabbits are embolized by injecting small blood clots (RSCEM) or large blood clots (RLCEM) into the cerebral circulation. Behavioral analysis is conducted 24 hours later, allowing for determination of the effective stroke dose (ES50) or clot amount (milligrams) that produces severe neurological deficits in 50% of rabbits. A drug is considered neuroprotective if it increases the ES50 compared with the vehicle-treated control group.
# Either vehicle or bolus injections of chlorogenic acid were administered intravenously over 1 minute starting 5 minutes following embolization using a suspension of small-sized blood clots. In this series of studies, CGA was administered at 50 mg/kg. Behavioral analysis was conducted at 24 hours following treatment, which allowed for the construction of quantal dose-response analysis curves. […] For the superimposed graphs, normal animals are plotted on the y-axis at 0% and abnormal animals are plotted at 100%. […] Moreover, CGA increased the P50 value (the clot dose that produces abnormality in 50% of a treatment group) compared to vehicle control. For a detailed discussion of the methods used to fit the quantal data to a sigmoidal curve, see Zivin and Waud. The pharmacology of chlorogenic acid in the rabbit small clot embolic stroke model (RSCEM) has been published (Lapchak, Exp Neurol. 2007 205(2):407-13). In the manuscript, it is shown that CGA has a therapeutic window of 60 minutes in the RSCEM. FIG. 2 presents the therapeutic window data.
# Using the RSCEM assay described above for CGA, the effects of Fisetin (50 mg/kg) on behavioral outcome measured 24 hours following embolization is tested.
# rat cortical neurons = assay: trophic factor withdrawal; assay type: cell-based; settings: serum-containing medium, Baicalein 10-10,000 nM, 2 days
# Protocol: FIG. 5A—trophic factor withdrawal. Primary cortical neurons are prepared from 18-day-old rat embryos, and cultured at low cell density 1×10^6/35 mm dish, in serum containing medium with Baicalein (10-10,000 nM), and viability assayed 2 days later using a live-dead assay. […] These include trophic factor withdrawal (TFW), excitotoxicity, glucose starvation, and most importantly, in a chemical ischemia model. […] (FIG. 5A). Using a published excitotoxicity assay, Baicalein rescues about 35% of the cells (FIG. 5B).
compound,measurement,setting,value
"O=c1cc(-c2ccccc2)oc2cc(O)c(O)c(O)c12 [Baicalein, 5,6,7-trihydroxyflavone]",therapeutic window,[1],≥ 60 min
same,behavior when administered 1 hour following embolization,[2]; 1 hour following embolization,effective at improving behavior
same,behavior when administered 3 hours following embolization,[2]; 3 hours following embolization,neither improve behavior
same,survival of low-density cultured rat cortical neurons,rat cortical neurons,dramatically promotes the survival
